# Laboratory results taken from patent US6455533B1, “Pharmaceutical compositions for oral administration, comprising an active substance and a cyclodextrin” (UCB, S.A., priority 1997, dated 2002).
# Counter-ions that a name gives are not always drawn.
# What was measured:
# [1] = Competition for the complexation with colored indicators; assay type: physicochemical; conditions: complex with β-cyclodextrin
# Source text: In this case, the cetirizine comes into competition with the colored indicator for the formation of an inclusion complex. The changes in the visible-range spectrum thus make it possible to determine whether or not cetirizine forms an inclusion complex with cyclodextrin. Two acid-base indicators were used; crystal violet and methyl orange. In the case of the acid-base indicators, the changes in the absorption spectrum due to complexation with a cyclodextrin are often large given that the complexation brings about a change in the pK of the indicator. If the pH of the solution is close to the pK, the addition of a cyclodextrin to an acid-base indicator solution brings about ionization or deionization of the indicator, which is reflected by a change in the color of the solution. Consequently, the absorption maximum in the visible spectrum is displaced as a function of the degree of complexation. […] (J.
# [2] = pH 3.4
# Description: Two solutions A and B were prepared. […] These two solutions were stirred at room temperature until thermodynamic equilibrium was reached.
association constant (average value) ([1]; competition with crystal violet),association constant (average value) ([1]; competition with methyl orange),increase of solubility (factor) [2],Structure (SMILES)
3292 mol⁻¹,3587 mol⁻¹,,"O=C(O)COCCN1CCN(C(c2ccccc2)c2ccc(Cl)cc2)CC1 (stereo not drawn) [cetirizine dihydrochloride, 2-[2-[4-[(4-chlorophenyl)phenylmethyl]-1-piperazinyl]ethoxy]acetic acid]"
,,at least 30,OC[C@H]1O[C@@H]2O[C@H]3[C@H](O)[C@@H](O)[C@@H](O[C@H]4[C@H](O)[C@@H](O)[C@@H](O[C@H]5[C@H](O)[C@@H](O)[C@@H](O[C@H]6[C@H](O)[C@@H](O)[C@@H](O[C@H]7[C@H](O)[C@@H](O)[C@@H](O[C@H]8[C@H](O)[C@@H](O)[C@@H](O[C@H]1[C@H](O)[C@H]2O)O[C@@H]8CO)O[C@@H]7CO)O[C@@H]6CO)O[C@@H]5CO)O[C@@H]4CO)O[C@@H]3CO [β-cyclodextrin]
